Measurements as given in the NIST ThermoML archive (doi:10.1016/j.jct.2007.02.012).
Numbers after ± are expanded uncertainties.

Assays:
[1] = refractive index (Na D-line) (dimensionless); conditions: 293.15 K; 101.33 kPa; Liquid; Standard Abbe refractometry
[2] = Boiling temperature at pressure P; conditions: Liquid, Distillation
[3] = 101.33 kPa, Liquid

SMILES | refractive index [1] | Boiling temperature at pressure P ([2]; 101.33 kPa) | mass density ([3]; 293.15 K) | Boiling temperature at pressure P ([2]; 1.733 kPa) | mass density ([3]; 298.15 K)
COC(=O)CCC(=O)OC [dimethyl 1,4-butanedioate] | 1.41969 ± 0.00082 | 196.1 ± 0.2 °C | 1119.13 ± 1.5 kg/m3 | – | –
COC(=O)CCCCC(=O)OC [dimethyl 1,6-hexanedioate] | 1.42825 ± 0.00075 | – | 1061.72 ± 0.61 kg/m3 | 115 ± 1 °C | –
COC(=O)CCCC(=O)OC [dimethyl pentanedioate] | 1.42454 ± 0.00075 | 214.2 ± 0.2 °C | 1087.67 ± 0.68 kg/m3 | – | –
CCC(=O)O [propanoic acid] | 1.3808 ± 0.00075 | 141.4 ± 0.2 °C | – | – | 988 ± 0.5 kg/m3
